According to ChEMBL document CHEMBL1133814, “Synthesis and progesterone receptor antagonist activities of 6-aryl benzimidazolones and benzothiazolones” (Bioorg Med Chem Lett, 2001):

Columns and labels:
Progesterone receptor [1] = target: T1, Progesterone receptor (Homo sapiens, UniProt P06401); assay: Inhibitory concentration against progesterone stimulated alkaline phosphatase activity in T47D human breast carcinoma cell line; format: cell-based
T1 sequence (P06401 whole entry): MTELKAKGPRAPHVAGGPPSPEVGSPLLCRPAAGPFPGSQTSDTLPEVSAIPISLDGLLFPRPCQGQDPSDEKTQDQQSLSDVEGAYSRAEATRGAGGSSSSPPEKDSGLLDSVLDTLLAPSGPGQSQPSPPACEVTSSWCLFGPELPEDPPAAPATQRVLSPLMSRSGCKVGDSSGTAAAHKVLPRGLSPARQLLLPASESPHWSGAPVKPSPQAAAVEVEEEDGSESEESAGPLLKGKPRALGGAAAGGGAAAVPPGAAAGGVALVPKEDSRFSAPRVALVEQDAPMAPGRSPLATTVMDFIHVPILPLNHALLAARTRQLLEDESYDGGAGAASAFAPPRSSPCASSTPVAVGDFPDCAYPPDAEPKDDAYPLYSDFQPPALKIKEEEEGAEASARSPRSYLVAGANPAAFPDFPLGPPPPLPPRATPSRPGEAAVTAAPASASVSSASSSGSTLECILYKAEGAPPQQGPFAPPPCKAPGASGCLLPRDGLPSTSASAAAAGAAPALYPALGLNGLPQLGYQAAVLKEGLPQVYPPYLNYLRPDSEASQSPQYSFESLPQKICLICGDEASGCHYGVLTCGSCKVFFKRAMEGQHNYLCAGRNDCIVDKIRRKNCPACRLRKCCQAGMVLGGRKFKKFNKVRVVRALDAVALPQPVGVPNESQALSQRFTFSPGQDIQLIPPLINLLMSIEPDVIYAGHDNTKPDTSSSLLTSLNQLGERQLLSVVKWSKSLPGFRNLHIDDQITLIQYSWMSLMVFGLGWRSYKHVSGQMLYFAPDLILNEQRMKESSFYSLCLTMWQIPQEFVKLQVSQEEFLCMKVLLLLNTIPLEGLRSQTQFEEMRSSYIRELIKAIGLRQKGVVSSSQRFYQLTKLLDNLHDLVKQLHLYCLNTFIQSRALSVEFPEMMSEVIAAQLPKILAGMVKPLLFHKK

Progesterone receptor [2] = target: T1, Progesterone receptor; assay: Binding affinity towards progesterone receptor was measured
Progesterone receptor [3] = target: T1, Progesterone receptor; assay: Inhibitory concentration against progesterone induced PRE-luciferase activity in CV-cells; set-up: species or system Oryctolagus cuniculus

In the case of `S=c1[nH]c2cc(-c3cccc(Cl)c3)ccc2n1Cc1ccccc1`, the IC50 (Progesterone receptor [1]) is reported as > 10000 nM.
In the case of `O=[N+]([O-])c1cccc(-c2ccc3c(c2)nc(O)n3Cc2ccccc2)c1`, the Ki (Progesterone receptor [2]) is reported as > 10000 nM, the IC50 (Progesterone receptor [3]) is reported as > 10000 nM and the IC50 (Progesterone receptor [1]) is reported as > 10000 nM.
A Ki (Progesterone receptor [2]) of 332 nM, an IC50 (Progesterone receptor [3]) of 326 nM and an IC50 (Progesterone receptor [1]) of 83.8 nM were found for `O=c1[nH]c2ccc(-c3cccc([N+](=O)[O-])c3)cc2s1` in this work.
A Ki (Progesterone receptor [2]) of 150 nM and an IC50 (Progesterone receptor [1]) of 17 nM were found for `S=c1[nH]c2ccc(-c3cccc(Cl)c3)cc2n1Cc1ccccc1` in this work.
A Ki (Progesterone receptor [2]) of 714 nM, an IC50 (Progesterone receptor [3]) of 257 nM and an IC50 (Progesterone receptor [1]) of 62 nM were found for `O=c1[nH]c2ccc(-c3cccc([N+](=O)[O-])c3)cc2n1Cc1ccccc1` in this work.
A Ki (Progesterone receptor [2]) of 525 nM, an IC50 (Progesterone receptor [3]) of 136 nM and an IC50 (Progesterone receptor [1]) of 73.1 nM were found for `CC(C)n1c(=O)[nH]c2ccc(-c3cccc([N+](=O)[O-])c3)cc21` in this work.
A Ki (Progesterone receptor [2]) of ~1000 nM, an IC50 (Progesterone receptor [3]) of 106 nM and an IC50 (Progesterone receptor [1]) of 29.2 nM were found for `CCn1c(=O)[nH]c2ccc(-c3cccc(Cl)c3)cc21` in this work.
A Ki (Progesterone receptor [2]) of 525 nM, an IC50 (Progesterone receptor [3]) of 412 nM and an IC50 (Progesterone receptor [1]) of 113 nM were found for `CC(C)n1c(=O)[nH]c2ccc(-c3cccc(Cl)c3)cc21` in this work.
An IC50 (Progesterone receptor [1]) of 1000 nM was found for `Cn1c(=O)[nH]c2ccc(-c3cccc(Cl)c3)cc21` in this work.
A Ki (Progesterone receptor [2]) of 521 nM and an IC50 (Progesterone receptor [1]) of 113 nM were found for `O=c1[nH]c2ccc(-c3cccc(Cl)c3)cc2n1Cc1ccccc1` in this work.
For `Cn1c(=O)[nH]c2ccc(-c3cccc([N+](=O)[O-])c3)cc21`, the Ki (Progesterone receptor [2]) was > 10000 nM and the IC50 (Progesterone receptor [1]) was 1000 nM.
A Ki (Progesterone receptor [2]) of 30 nM and an IC50 (Progesterone receptor [1]) of 10 nM were found for `O=[N+]([O-])c1cccc(-c2ccc3[nH]c(=S)n(Cc4ccccc4)c3c2)c1` in this work.
A Ki (Progesterone receptor [2]) of 127 nM, an IC50 (Progesterone receptor [3]) of 265 nM and an IC50 (Progesterone receptor [1]) of 460 nM were found for `O=c1[nH]c2ccc(-c3cccc(Cl)c3)cc2s1` in this work.
For `Oc1nc2cc(-c3cccc(Cl)c3)ccc2n1Cc1ccccc1`, the Ki (Progesterone receptor [2]) was 3130 nM, the IC50 (Progesterone receptor [3]) was 3060 nM and the IC50 (Progesterone receptor [1]) was > 10000 nM.
